Values quoted from earlier work as cited in patent publication US7658956B2, “Erectile dysfunction phyto-nutraceutical synergistic composition” (priority 2006, dated 2010).

Tests used:
[1] = test system: patients with erectile dysfunction; settings: 30 patients per group
spermatozoa = settings: in vitro
[2] = test system: bacterial resistance mechanism (multidrug pump)

O=c1n(CCCN2CCN(c3cccc(Cl)c3)CC2)nc2ccccn12 [trazodone]
overall therapeutic efficacies on erectile dysfunction [1]: 30%

Vitamin E
treated patients who impregnated their spouses (asthenospermic patients; Eleven out of 52 treated patients): 21%
MDA concentration in spermatozoa (asthenospermic patients; oral, asthenospermic patients): significantly decreased
sperm motility (asthenospermic patients; oral, asthenospermic patients): improved sperm motility
ROS mediated damage on spermatozoa (spermatozoa): protects against ROS mediated damage

C[C@H](CC[C@@]1(O)O[C@H]2C[C@H]3[C@@H]4CC=C5C[C@@H](O[C@@H]6O[C@H](CO)[C@@H](O[C@@H]7O[C@@H](C)[C@H](O)[C@@H](O)[C@H]7O)[C@H](O)[C@H]6O[C@@H]6O[C@@H](C)[C@H](O)[C@@H](O)[C@H]6O)CC[C@]5(C)[C@H]4CC[C@]3(C)[C@H]2[C@@H]1C)CO[C@@H]1O[C@H](CO)[C@@H](O)[C@H](O)[C@H]1O [Protodioscin]
pro-erectile activity (relaxant effect) (rabbit corpus cavernosum): pro-erectile activity

COc1cc([C@H]2Oc3cc(-c4cc(=O)c5c(O)cc(O)cc5o4)cc(OC)c3O[C@@H]2CO)ccc1O (racemic) [5′-MHC, 5′-methoxyhydnocarpin]
accumulation of berberine in the cells ([2]; in the presence of 5′-MHC): strong increase
activity of herbal Berberine alkaloids under the action of 5′-MHC ([2]; in vitro): strongly potentiated
